Laboratory results: US8901118B2, “Compounds and methods for kinase modulation, and indications therefor” (Plexxikon Inc., priority 2010, dated 2014)

Assays:
Fms kinase = Fms kinase (Homo sapiens, UniProt P07333); assay: Fms kinase biochemical activity assay (AlphaScreen, biotin-(E4Y)10 phosphorylation); conditions: 100 μM ATP; read-out: Biochemical Inhibition IC50 Fms
Method: In one assay the biochemical activity IC50 values are determined with respect to inhibition of Fms kinase activity, where inhibition of phosphorylation of a peptide substrate is measured as a function of compound concentration. Compounds to be tested, dissolved in DMSO (1 μL), are added to a white 384-well plate (Costar #3705). Working stocks of Fms kinase (Invitrogen #PV3249), biotin-(E4Y)10 substrate (Upstate Biotech, Cat#12-440), and ATP (Sigma, Cat#A-3377) are prepared in 25 mM Hepes pH 7.5, 0.5 mM MgCl2, 2 mM MnCl2, 2 mM DTT, 0.01% BSA, and 0.01% Tween-20. All components are added to the 384-well plate for a final concentration of 1 ng/well Fms, 30 nM biotin-(E4Y)10 (Upstate Biotechnology) and 100 μM ATP in a volume of 20 μL. Each sample is at 5% DMSO. The plate is then incubated for 20 minutes at 30° C. Just before use, working stocks of donor and acceptor beads from the AlphaScreen PY20 Detection Kit (PerkinElmer, Cat#676601M) are prepared in 25 mM Hepes pH 7.5, pH 7.4, 100 mM EDTA, 0.01% BSA. To stop the reaction, the plate is uncovered in the dark and 5 μL of Donor Beads solution (Streptavidin beads) is added to each well. The plate is incubated at room temperature for 20 minutes. Five microliters of Acceptor Beads solution (PY20 coated beads) are then added to each well. The final concentration of each bead is 10 μg/mL. The plates are incubated at room temperature for 60 minutes. Fluorescence signal is recorded on the Envision reader. Phosphorylated substrate results in binding of the PY20 antibody and association of the donor and acceptor beads such that signal correlates with kinase activity. The signal vs. compound concentration is used to determine the IC50.

[1] = Relative solubility by turbidity in aqueous buffers (pH 1.5, 4.5, 6.8, 7.4); format: physicochemical; conditions: for turbidity threshold (L, M, H) 1.4: pH 1.5 (SGF); for turbidity threshold (L, M, H) 4.5: pH 4.5 (SIF); for turbidity threshold (L, M, H) 6.8: pH 6.8 (SIF); for turbidity threshold (L, M, H) 7.4: pH 7.4 (HEPES)
Method: As an indication of relative solubility, the turbidity of compounds in aqueous solutions is assessed. To assess possible compound properties in different physiological compartments, such as stomach, intestine, and blood, a series of aqueous buffers with varying pH is used. Thus each compound is diluted into four different physiologically relevant buffers and solution turbidity is measured by spectrophotometry.
Compounds are dissolved at a concentration of 25 mM in dimethyl sulfoxide, then serially diluted 1:1 into a 96 well plate, diluting 10 times in pure dimethyl sulfoxide, with the final well of each row a dimethyl sulfoxide blank. In an assay plate, 99 μL of appropriate buffer is added to each well, and 1 μL of each sample dilution is added to the buffer, achieving a range of final total concentrations in aqueous solutions having different pH. The buffers used are Simulated Gastric Fluid (SGF-pH 1.5) 0.5M NaCl, pH 1.5; Simulated Intestinal fluid (SIF-pH 4.5 and pH 6.8) 0.05M NaH2PO4, pH 4.5 and 6.8; and Hepes Buffer (HEPES-pH 7.4) 10 mM HEPES, 150 mM NaCl, pH 7.4. Control compounds pyrene, estriol and propranolol HCl are also assessed. Plates are spun and then mixed for 1 minute, and the absorbance is read using a Tecan Safire II to read wavelengths in the visible range (490, 535, and 650 nm) at four locations per well, reflecting the degree of turbidity present. The average optical density for each wavelength in each well is graphed vs. compound concentration, and the concentration at which the curve crosses a threshold O.D. of 0.01 for each wavelength is reported as the endpoint turbidity assay result. The average of the three wavelengths is used to compare turbidity of compounds.

CYP1A2 = biological target: T1, CYP1A2 (Homo sapiens, UniProt P05177); assay: CYP1A2 inhibition (fluorescent substrate CEC); format: in vitro ADME; conditions: read-out: Cyp IC50 1A2
T1 sequence (P05177 1-516): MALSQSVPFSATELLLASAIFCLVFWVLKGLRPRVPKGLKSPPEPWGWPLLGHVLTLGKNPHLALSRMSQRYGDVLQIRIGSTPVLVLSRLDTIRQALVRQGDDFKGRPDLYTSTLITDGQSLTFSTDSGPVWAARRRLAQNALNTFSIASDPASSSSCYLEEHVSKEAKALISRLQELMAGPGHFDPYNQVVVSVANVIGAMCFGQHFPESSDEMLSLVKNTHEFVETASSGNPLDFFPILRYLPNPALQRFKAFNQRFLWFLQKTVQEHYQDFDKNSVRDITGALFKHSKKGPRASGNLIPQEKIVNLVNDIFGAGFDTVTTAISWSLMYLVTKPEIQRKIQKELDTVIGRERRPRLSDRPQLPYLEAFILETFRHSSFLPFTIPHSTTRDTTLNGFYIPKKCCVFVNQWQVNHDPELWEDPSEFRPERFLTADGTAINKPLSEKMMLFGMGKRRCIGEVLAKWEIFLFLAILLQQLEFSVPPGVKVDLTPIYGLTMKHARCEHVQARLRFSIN
Method: (§1) CYP (Cytochrome P450) enzymes are the major drug metabolizing enzymes present in the liver. The inhibition of CYP enzyme activity (IC50) for each of CYP1A2, CYP2C19, CYP2C9, CYP2D6, CYP3A4(BFC) and CYP3A4(BQ) is determined for compounds, where inhibition of metabolism of a known substrate leads to a decrease in the fluorescence of the metabolized product. The fluorescence of the product is monitored as a function of compound concentration. Compounds are dissolved in DMSO to a concentration of 100 mM. These are diluted 1 μL into 82 μL of acetonitrile. An 11 μL aliquot of this solution is then added to 204 μL of cofactor mix (1.3% NADPH Regeneration system Solution A, 1.04% NADPH Regeneration system Solution B from BD Biosciences, 5% acetonitrile and 0.05% DMSO). These are then serially diluted 1:1 (160 μL to 160 μL co-factor mix) for a total of 10 points. A 10 μL aliquot of this final mixture is dispensed into 384 well assay plates and incubated for 10 minutes at 37° C. […] Assay plates are incubated at 37° C. (CYP1A2-15 min; CYP2C9-45 min; CYP2C19, 2D6 and 3A4-30 min) and read in a Tecan Safire 2 plate reader (CYP1A2, 2C19 and 3A4 409 ex/460 em; CYP2C9 and 2D6 409 ex/530 em). The signal versus compound concentration is used to determine the IC50. The enzymes and substrates for this assay are obtained from BD Biosciences.

CYP2D6 = CYP2D6 (Homo sapiens, UniProt P10635); assay: CYP2D6 inhibition (fluorescent substrate AMMC); format: in vitro ADME; conditions: read-out: Cyp IC50 2D6
Chain of CYP2D6 (P10635 whole entry): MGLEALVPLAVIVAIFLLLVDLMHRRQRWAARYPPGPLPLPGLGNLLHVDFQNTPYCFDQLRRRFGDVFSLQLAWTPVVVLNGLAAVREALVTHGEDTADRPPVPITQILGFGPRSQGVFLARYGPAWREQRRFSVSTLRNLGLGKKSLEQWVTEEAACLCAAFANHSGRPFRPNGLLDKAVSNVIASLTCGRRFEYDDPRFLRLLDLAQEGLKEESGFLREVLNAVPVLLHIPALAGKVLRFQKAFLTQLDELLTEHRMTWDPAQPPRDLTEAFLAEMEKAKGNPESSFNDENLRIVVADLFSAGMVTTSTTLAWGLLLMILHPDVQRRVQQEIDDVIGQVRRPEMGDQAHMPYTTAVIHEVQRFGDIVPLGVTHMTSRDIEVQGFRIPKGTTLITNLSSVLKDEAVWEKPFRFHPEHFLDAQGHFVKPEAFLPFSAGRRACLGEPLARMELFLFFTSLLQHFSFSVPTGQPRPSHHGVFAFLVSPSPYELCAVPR
Method: as §1

CYP3A4(BQ) = CYP3A4(BQ) (Homo sapiens, UniProt P08684); assay: CYP3A4(BQ) inhibition; format: in vitro ADME; conditions: CYP3A4, substrate BQ; read-out: Cyp IC50 3A4(BQ)
Chain of CYP3A4(BQ) (P08684 whole entry): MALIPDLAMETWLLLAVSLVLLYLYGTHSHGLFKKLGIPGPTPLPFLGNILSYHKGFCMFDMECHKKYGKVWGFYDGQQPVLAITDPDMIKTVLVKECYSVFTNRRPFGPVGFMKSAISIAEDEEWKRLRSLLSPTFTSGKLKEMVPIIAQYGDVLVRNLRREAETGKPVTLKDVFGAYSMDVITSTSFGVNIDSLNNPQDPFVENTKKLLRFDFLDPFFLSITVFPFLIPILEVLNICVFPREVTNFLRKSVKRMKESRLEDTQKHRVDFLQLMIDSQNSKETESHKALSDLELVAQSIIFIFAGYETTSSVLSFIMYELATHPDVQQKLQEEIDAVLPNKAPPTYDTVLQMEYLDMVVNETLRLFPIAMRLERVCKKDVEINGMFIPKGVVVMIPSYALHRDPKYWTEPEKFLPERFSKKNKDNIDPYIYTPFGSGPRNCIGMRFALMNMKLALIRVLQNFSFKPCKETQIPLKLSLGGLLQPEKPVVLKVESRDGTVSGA
Method: as §1

Chain of Fms kinase (P07333 20-972): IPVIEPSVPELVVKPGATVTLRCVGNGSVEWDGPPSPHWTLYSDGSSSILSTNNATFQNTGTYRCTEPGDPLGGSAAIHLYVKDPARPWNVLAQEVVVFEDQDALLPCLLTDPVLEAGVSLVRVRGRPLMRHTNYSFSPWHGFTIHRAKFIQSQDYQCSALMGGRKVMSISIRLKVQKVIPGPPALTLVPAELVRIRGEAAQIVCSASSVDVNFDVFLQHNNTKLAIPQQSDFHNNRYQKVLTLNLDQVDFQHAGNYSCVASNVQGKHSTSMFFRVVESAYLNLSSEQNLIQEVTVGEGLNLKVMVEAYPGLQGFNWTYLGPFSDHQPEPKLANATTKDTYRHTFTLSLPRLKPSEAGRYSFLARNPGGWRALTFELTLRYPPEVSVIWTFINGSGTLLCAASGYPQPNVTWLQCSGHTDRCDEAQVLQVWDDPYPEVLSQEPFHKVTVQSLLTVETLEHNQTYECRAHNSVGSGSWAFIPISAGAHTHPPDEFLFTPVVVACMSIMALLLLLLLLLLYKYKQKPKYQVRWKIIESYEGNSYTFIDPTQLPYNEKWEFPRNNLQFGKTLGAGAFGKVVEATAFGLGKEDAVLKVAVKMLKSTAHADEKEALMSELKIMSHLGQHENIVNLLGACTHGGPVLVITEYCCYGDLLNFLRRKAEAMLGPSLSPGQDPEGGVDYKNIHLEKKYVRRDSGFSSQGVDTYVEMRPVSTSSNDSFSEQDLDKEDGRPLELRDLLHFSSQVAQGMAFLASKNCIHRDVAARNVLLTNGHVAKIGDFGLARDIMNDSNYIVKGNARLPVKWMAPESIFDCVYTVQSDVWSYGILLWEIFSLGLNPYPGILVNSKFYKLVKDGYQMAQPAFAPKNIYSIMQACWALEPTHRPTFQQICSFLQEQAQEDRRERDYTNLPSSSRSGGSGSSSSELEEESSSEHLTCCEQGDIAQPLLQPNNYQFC

Row | SMILES | IC50 (Fms kinase) | turbidity threshold (L, M, H) 1.4 [1] | turbidity threshold (L, M, H) 4.5 [1] | turbidity threshold (L, M, H) 6.8 [1] | turbidity threshold (L, M, H) 7.4 [1] | IC50 (CYP1A2) | IC50 (CYP2D6) | IC50 (CYP3A4(BQ))
1 | O=C(c1ccc(NC2CCC(F)(F)CC2)nc1F)c1c[nH]c2ncnc(NCC(F)(F)F)c12 [Compound P-4061, [6-[(4,4-difluorocyclohexyl)amino]-2-fluoro-3-pyridyl]-[4-(2,2,2-trifluoroethylamino)-7H-pyrrolo[2,3-d]pyrimidin-5-yl]methanone] | < 0.1 µM | M (moderate solubility if the threshold concentration is 31.3 μM to 250 μM) | L (low solubility if the threshold concentration is <31.3 μM) | M (moderate solubility if the threshold concentration is 31.3 μM to 250 μM) | M (moderate solubility if the threshold concentration is 31.3 μM to 250 μM) | > 10 µM | > 10 µM | > 10 µM
2 | O=C(c1ccc(NC2CCC(F)(F)CC2)nc1F)c1c[nH]c2ncnc(NC3CC3)c12 [Compound P-4062, [4-(cyclopropylamino)-7H-pyrrolo[2,3-d]pyrimidin-5-yl]-[6-[(4,4-difluorocyclohexyl)amino]-2-fluoro-3-pyridyl]methanone] | < 0.01 µM | H (high solubility if the threshold concentration is >250 μm) | L (low solubility if the threshold concentration is <31.3 μM) | M (moderate solubility if the threshold concentration is 31.3 μM to 250 μM) | L (low solubility if the threshold concentration is <31.3 μM) | > 10 µM | > 10 µM | > 10 µM
3 | CNc1ncnc2[nH]cc(C(=O)c3ccc(NC4CCC(F)(F)CC4)nc3F)c12 [Compound P-4063, [6-[(4,4-difluorocyclohexyl)amino]-2-fluoro-3-pyridyl]-[4-(methylamino)-7H-pyrrolo[2,3-d]pyrimidin-5-yl]methanone] | < 0.01 µM | M (moderate solubility if the threshold concentration is 31.3 μM to 250 μM) | M (moderate solubility if the threshold concentration is 31.3 μM to 250 μM) | M (moderate solubility if the threshold concentration is 31.3 μM to 250 μM) | M (moderate solubility if the threshold concentration is 31.3 μM to 250 μM) | > 10 µM | > 10 µM | > 10 µM
4 | CCc1ccc(Nc2ccc(C(=O)c3c[nH]c4ncnc(N)c34)c(F)n2)cn1 [Compound P-4065, (4-amino-7H-pyrrolo[2,3-d]pyrimidin-5-yl)-[6-[(6-ethyl-3-pyridyl)amino]-2-fluoro-3-pyridyl]methanone] | < 0.01 µM | H (high solubility if the threshold concentration is >250 μm) | M (moderate solubility if the threshold concentration is 31.3 μM to 250 μM) | M (moderate solubility if the threshold concentration is 31.3 μM to 250 μM) | M (moderate solubility if the threshold concentration is 31.3 μM to 250 μM) | > 10 µM | > 10 µM | > 10 µM
5 | COc1ccc(Nc2ccc(C(=O)c3c[nH]c4ncnc(NC(C)C)c34)c(F)n2)cn1 [Compound P-4066, [2-fluoro-6-[(6-methoxy-3-pyridyl)amino]-3-pyridyl]-[4-(isopropylamino)-7H-pyrrolo[2,3-d]pyrimidin-5-yl]methanone] | < 0.01 µM | M (moderate solubility if the threshold concentration is 31.3 μM to 250 μM) | L (low solubility if the threshold concentration is <31.3 μM) | L (low solubility if the threshold concentration is <31.3 μM) | M (moderate solubility if the threshold concentration is 31.3 μM to 250 μM) | > 10 µM | > 10 µM | 5 to 10 µM
6 | COc1ccc(Nc2ccc(C(=O)c3c[nH]c4ncnc(NCC5CC5)c34)c(F)n2)cn1 [Compound P-4067, [4-(cyclopropylmethylamino)-7H-pyrrolo[2,3-d]pyrimidin-5-yl]-[2-fluoro-6-[(6-methoxy-3-pyridyl)amino]-3-pyridyl]methanone] | < 0.01 µM | H (high solubility if the threshold concentration is >250 μm) | M (moderate solubility if the threshold concentration is 31.3 μM to 250 μM) | M (moderate solubility if the threshold concentration is 31.3 μM to 250 μM) | M (moderate solubility if the threshold concentration is 31.3 μM to 250 μM) | > 10 µM | > 10 µM | > 10 µM
7 | CCCNc1ncnc2[nH]cc(C(=O)c3ccc(Nc4ccc(OC)nc4)nc3F)c12 [Compound P-4068, [2-fluoro-6-[(6-methoxy-3-pyridyl)amino]-3-pyridyl]-[4-(propylamino)-7H-pyrrolo[2,3-d]pyrimidin-5-yl]methanone] | < 0.01 µM | H (high solubility if the threshold concentration is >250 μm) | M (moderate solubility if the threshold concentration is 31.3 μM to 250 μM) | M (moderate solubility if the threshold concentration is 31.3 μM to 250 μM) | M (moderate solubility if the threshold concentration is 31.3 μM to 250 μM) | > 10 µM | > 10 µM | > 10 µM
